Laboratory results: US12486250B2, “Muscarinic receptor 4 antagonists and methods of use” (Neurocrine Biosciences, Inc., priority 2019, dated 2025)
Where two headings read alike, the source gives them in different places.

Legend:
[1] = target: T1, MDR1 (Multidrug resistance protein 1) (Homo sapiens, UniProt P08183); assay: MDCK-MDR1 assay (apparent permeability and efflux ratio); assay type: in vitro ADME; conditions: for Papp A→B at 2 h, 5 µM / Papp B→A at 2 h, 5 μM: MDCK-MDR1, pH 7.4, 2 hours at 37° C.; for Papp A→B at 2 h, 5 µM: apical to basolateral; for Papp B→A at 2 h, 5 μM: basolateral to apical; for efflux ratio at 2 h, 5 µM: MDCK-MDR1, pH 7.4, Papp B>A/Papp A>B
T1 construct: host or cells: MDCK cells
Experimental: Apparent permeability and efflux ratios were generated by Absorption Systems LLP, Exton, PA MDCK cells transfected with human MDR1 (Multidrug resistance protein 1) were grown as monolayers on microporous membranes in 12-well assay plates. Each compound was evaluated at a single concentration equal to 5 μM. The assay buffer consisted of Hanks' balanced salt solution pH 7.4 containing 10 mM HEPES and 15 mM glucose. Test article diluted in assay buffer was dosed to the apical chambers of cell monolayer plates to determine apical to basolateral (A to B) permeability. Basolateral to apical (B to A) permeability was determined by addition of dosing solution to the basolateral chambers. […] Cell monolayers dosed with test article were incubated for 2 hours at 37° C., 5% CO2 in a humidified incubator. Samples were collected from both donor and receiver chambers at 2 hours then prepared for LC-MS/MS analysis using electrospray ionization. Duplicate measurements of A to B and B to A permeability were collected for each compound. Efflux ratio was calculated using the following formula: Papp B>A/Papp A>B. Controls were incorporated to ensure cell monolayer integrity (lucifer yellow) and activity of MDR1 protein (digoxin).

[2] = Rat pharmacokinetics (IV and PO); assay type: in vivo, male Sprague-Dawley rats; conditions: male, Sprague-Dawley, plasma; for Vd: read-out: Vdss; for half-life: read-out: T½ (converted); for Tmax: read-out: Tmax range
Experimental: The pharmacokinetics of Compounds 1, 2, 3A, and 4A were assessed in male Sprague-Dawley rats following either intravenously (IV) or orally (PO) dosing. Sin-life portions of the studies were either conducted internally at Neurocrine Biosciences or contracted to Charles River Laboratories or Agilux Laboratories. All studies were performed according to good scientific principles and internal standard operating procedures (SOPs). However, the studies were exploratory in nature and were not conducted in accordance with the United States Food and Drug Administration (FDA) Good Laboratory Guidance (GLP) regulations.
Adult (8-9 weeks old) male rats were acclimated prior to dose administration. For dosing, rats were either dosed intravenously through the femoral vein or orally via oral gavage. Food and water were provided ad libitum during the acclimation period. The rats were maintained in a controlled temperature and humidity environment with a photoperiod with a 12 hour light to dark cycle. Rats were either dosed fed or fasted. In studies where the rats were fasted, rats were allowed access to food four hours post-dose.
For the IV bolus dose, compound was administered over a period of approximately 30 seconds using a 1 mL syringe via the femoral vein catheter. The IV dose was followed with a bolus of sterile saline (approximately 100 μL). For IV infusion doses, compound was administered using an IV infusion pump to deliver the total dose volume over 1 hour. Rats were connected to the infusion pump through catheter tubing that was connected to the femoral catheter prior to the infusion start. For the oral dose, compound was administered using flexible, polypropylene-shafted, silicone bulb shaped-tipped gavage (Instech Solomon plastic feeding tubes, 18 gauge×75 mm). Animals were periodically observed for eight hours following the dose administration for potential test article related effects.
Serial blood samples from IV and PO dosed rats (N=3 or 4) were collected out to 24 hours post-dose. For the time points up to 8 hours post dose, approximately 200 μL of whole blood was drawn from the jugular catheter or from the tail vein with a 1-mL syringe. The whole blood was transferred to a 600 μL Sarstedt collection tube that contained 1.2-2 mg EDTA-K3/mL of anticoagulant, gently mixed, and then centrifuged for 1.0 min at 13,000 rpm. Approximately 100 μL of plasma was aliquoted. Blood for the terminal time points at 24 hours were collected by […] with a syringe containing 1.6 mg EDTA-K3/mL of anticoagulant, transferred to an Eppendorf and immediately centrifuged for 1.0 min at 13,000 rpm. Approximately 300 μL of plasma was aliquoted. The aliquoted plasma samples were stored at −80° C. until analysis.
For IV and PO dose groups, descriptive pharmacokinetics were derived and evaluated based on the plasma concentrations from each individual rat. Pharmacokinetic parameters were determined using non-compartmental analysis (NCA) of plasma concentration-time profiles in Phoenix WinNonlin pharmacokinetic modeling software Professional (version 6.3; Pharsight Corporation). Nominal time was used for all timepoints unless otherwise indicated. Descriptive statistics (means, standard deviations and coefficient of variation) were also generated. Mean pharmacokinetic summaries of Compounds 1-4 following intravenous and PO dosing in Sprague Dawley rats were summarized in Tables 15 and 16.
Plasma samples of compounds 1, 2, 3A, and 4A were prepared by protein precipitation. Calibration standards and quality control plasma samples were prepared from the same lot of reference standard to quantify the concentration of the study samples. […]

[3] = IV infusion (1 hr), 2 mg/kg, HCl salt
[4] = iv, 1 mg/kg, IV bolus, 1 mg/kg, HCl salt
[5] = iv, 1 mg/kg, IV bolus, HCl salt
[6] = iv, 2 mg/kg, IV infusion (1 hr), 2 mg/kg, HCl salt
[7] = iv, 2 mg/kg, IV infusion (1 hr), HCl salt
[8] = po, 10 mg/kg, PO 10 mg/kg, 1% Tween-80 in water (suspension)
[9] = po, 10 mg/kg, PO 10 mg/kg, 10% PEG-400 in 0.5% MC (suspension)
[10] = po, 10 mg/kg, PO 10 mg/kg, 10% PEG-400 in 0.5% MC in water (solution)
[11] = PO 10 mg/kg, 10% PEG-400 in 0.5% MC in water (solution)
[12] = iv, 2.5 mg/kg, IV bolus, HCl salt
[13] = po, 10 mg/kg, PO 10 mg/kg, 5% Tween-80 in 0.5% (w/v) MC in water (suspension)
[14] = po, 10 mg/kg, PO 10 mg/kg, 30% PG, 20% PEG-400, 0.5% MC in water (solution)

SMILES | Papp A→B at 2 h, 5 µM [1] | Papp B→A at 2 h, 5 μM [1] | efflux ratio at 2 h, 5 µM [1] | clearance ([2]; IV bolus, 1 mg/kg, HCl salt) | Vd ([2]; IV bolus, 1 mg/kg, HCl salt) | clearance [2, 3] | Vd [2, 3] | half-life [2, 4] | AUC(0-inf) [2, 5] | AUC(0-t) [2, 5] | half-life [2, 6] | AUC(0-inf) [2, 7] | AUC(0-t) [2, 7] | AUC(0-t) [2, 10] | Cmax [2, 10] | Tmax [2, 10] | bioavailability [2, 11] | AUC(0-inf) [2, 10] | half-life [2, 10] | AUC(0-inf) [2, 13] | also measured
C[C@@H]1CN(c2cnc(C(F)(F)F)cn2)C[C@H](C)N1C(=O)OCCC1CCN(Cc2ccccc2)CC1 [Compound 1, 2-(1-benzylpiperidin-4-yl)ethyl (2R,6S)-2,6-dimethyl-4-[5-(trifluoromethyl)pyrazin-2-yl]piperazine-1-carboxylate] | 15 ×10⁻⁶ cm/s | 21.3 ×10⁻⁶ cm/s | 1.42 | 40.4 mL/min/kg | 28.2 L/kg | 15.8 mL/min/kg | 12.1 L/kg | 546 min | 415 ng·h/mL | 357 ng·h/mL | 612 min | 1680 ng·h/mL | 1780 ng·h/mL | 3150 ng·h/mL | 264 ng/mL | 0.5 to 1 h |  |  |  |  | bioavailability ([2]; PO 10 mg/kg, 10% PEG-400 in 0.5% MC (suspension)): 89.1%; AUC(0-t) [2, 8]: 3950 ng·h/mL; Cmax [2, 8]: 280 ng/mL; Tmax [2, 8]: 1 h; AUC(0-t) [2, 9]: 3180 ng·h/mL; Cmax [2, 9]: 164 ng/mL; Tmax [2, 9]: 2 to 7.5 h
C[C@@H]1CN(c2cnc(C(F)(F)F)cn2)C[C@@H](C)N1C(=O)OCCC1CCN(Cc2ccccc2)CC1 [Compound 2, 2-(1-benzylpiperidin-4-yl)ethyl (2R,6R)-2,6-dimethyl-4-[5-(trifluoromethyl)pyrazin-2-yl]piperazine-1-carboxylate] | 17.5 ×10⁻⁶ cm/s | 24.1 ×10⁻⁶ cm/s | 1.38 |  |  | 44.9 mL/min/kg | 36 L/kg |  |  |  | 660 min | 747 ng·h/mL | 613 ng·h/mL | 2190 ng·h/mL | 130 ng/mL | 2 to 7.5 h | 81.4% | 3040 ng·h/mL | 774 min |  | 
C[C@@H]1CN(c2ncc(C#N)cn2)C[C@H](C)N1C(=O)NCCC1CCN(Cc2ccccc2)CC1 [Compound 3A] | 0.53 ×10⁻⁶ cm/s | 51.2 ×10⁻⁶ cm/s | 96.6 |  |  |  |  |  |  |  |  |  |  |  |  |  |  |  |  | 1150 ng·h/mL | clearance ([2]; IV bolus, 2.5 mg/kg, HCl salt): 47.5 mL/min/kg; Vd ([2]; IV bolus, 2.5 mg/kg, HCl salt): 4.37 L/kg; bioavailability ([2]; PO 10 mg/kg, 30% PG, 20% PEG-400, 0.5% MC in water (solution)): 43.7%; half-life ([2]; iv, 2.5 mg/kg, IV bolus, 2.5 mg/kg, HCl salt): 117 min; AUC(0-inf) [2, 12]: 882 ng·h/mL; AUC(0-t) [2, 12]: 854 ng·h/mL; AUC(0-t) [2, 13]: 1500 ng·h/mL; Cmax [2, 13]: 205 ng/mL; Tmax [2, 13]: 0.5 to 4 h; half-life [2, 13]: 193 min; AUC(0-inf) [2, 14]: 1540 ng·h/mL; AUC(0-t) [2, 14]: 1400 ng·h/mL; Cmax [2, 14]: 247 ng/mL; Tmax [2, 14]: 0.5 to 2 h; half-life [2, 14]: 219 min
C[C@@H]1CN(c2cnc(C(F)(F)F)cn2)C[C@@H](C)N1C(=O)NCCC1CCN(Cc2ccccc2)CC1 [Compound 4A] | 0.55 ×10⁻⁶ cm/s | 68.6 ×10⁻⁶ cm/s | 125 | 56.6 mL/min/kg | 16.1 L/kg |  |  | 301 min | 204 ng·h/mL | 288 ng·h/mL |  |  |  | 1700 ng·h/mL | 182 ng/mL | 0.5 to 2 h | 59.2% | 1740 ng·h/mL | 252 min | 3500 ng·h/mL | AUC(0-t) [2, 13]: 2530 ng·h/mL; Cmax [2, 13]: 231 ng/mL; Tmax [2, 13]: 1 to 8 h; half-life [2, 13]: 425 min
